Measurements as given in patent US20230009366A1, “Using Alternating Electric Fields at Different Frequencies to Increase Permeability of the Blood Brain Barrier and also to Provide Other Benefits” (Novocure GmbH, priority 2021, published 2023).

What was measured:
[1] = test system: GBM F98 cells; test: Paclitaxel plus alternating electric fields in orthotopic glioblastoma rats; format: in vivo, rat
Experimental: Another set of in vivo experiments was performed to determine whether paclitaxel (PTX, which is a drug that ordinarily cannot traverse the BBB) can make it across the BBB when the subject is treated with alternating electric fields. In one of these experiments, glioblastoma was induced in rats by injecting them orthotopically with GBM F98 cells on day 0 of the experiment. On day 6, a first set of MRI scans of each rat's brains was obtained. Alternating electric fields at 100 kHz were applied to all the rats on days 7 through 10. On day 10 (i.e., after applying the fields for 72 hours), some of the rats were injected i.p. with 25 mg/kg PTX, while other rats were not injected. Subsequently, on day 13 (i.e., 3 days post PTX administration), a second set of MRI scans of each rat's brain was obtained. Ki67 (red) and DAPI (blue) staining was evaluated for the test and control rats.
A similar experiment using a 15 mg/kg dose of PTX was performed, except that instead of quantifying the Ki67/DAPI ratio on day 13, Mill scans and post mortem tissue sections were used to determine the fold increase of the tumor volume on day 15. The tumor volumes from these experiments are depicted in FIG. 11. […] And the inventors have concluded that the alternating electric fields allow the PTX (or metabolites thereof) to cross the BBB.

[2] = test system: GBM39/Luc cells; test: Drug sensitivity / synergy with TTFields; format: cell-based, human
[3] = test system: human glioblastoma cells; test: Bioluminescence substrate permeation in luciferase-expressing glioblastoma cells; format: cell-based; settings: TTFields exposure
Description: Bioluminescence imaging: For all bioluminescence work, we used genetically-modified GBM2, GBM39 and U87-MG whereby the glioblastoma cells were transfected with lentiviral vectors that expressed either firefly luciferase (fLuc for GBM39) or a fusion protein of GFP and firefly luciferase (GFP/fLuc for GBM2 and eGFP-fLuc for U87-MG) or a Renilla luciferase-Red Fluorescence protein fusion (RLuc-RL8 for KR158B).

[4] = test system: U87-MG/eGFP-fLuc cells; test: Reversibility of TTFields-induced uptake; format: cell-based, human; settings: TTFields 24 h vs none vs TTFields 24 h followed by no TTFields 24 h
Experimental: To assess the reversibility of the effect of TTFields on cancer cells, U87-MG/eGFP-fLuc cells were subjected to three conditions: (1) No TTFields exposure, standard cell culture conditions (37° C., […], 5% CO2), (2) TTFields exposure for 24 h and (3) TTFields exposure for 24 h followed by no TTFields exposure for 24 h. The readouts of BLI, PpIX fluorescence (5-ALA product) and Dextran-FITC (4 kDa) fluorescence were acquired. All experimental conditions were done in triplicate. […] Here, NS=not significant; BLI=bioluminescent imaging; eGFP=enhanced green fluorescence protein; fLuc=firefly luciferase; 5-ALA=5 aminolevulinic acid; FITC=fluorescein isothiocyanate; PpIX=protoporphyrin IX; and FL=fluorescence.
In vitro tumor treating field apparatus: The coverslips were transferred to a ceramic dish of the Inovitro™ system, which in turn was mounted onto Inovitro™ base plates (Novocure Ltd., Haifa, Israel). Tumor treating fields at 200 kHz (1-4 V/cm) were applied through an Inovitro™ power generator. Incubator ambient temperatures spanned 20-27° C. with a target temperature of 37° C. in the ceramic dishes upon application of the TTFields. Duration of TTFields exposure lasted anywhere from 0.5 to 72 h, after which coverslips were removed and processed for the appropriate bioassays (see below). […]

[5] = molecular target: T1, firefly luciferase (Photinus pyralis, UniProt P08659); test: Activity of purified firefly luciferase under TTFields; format: biochemical
T1 construct: purchased Sigma Aldrich Inc (St. Louis, Mo.) SRE0045-2MG
Experimental: U87-MG/eGFP-fLuc cells were seeded on Thermanox glass coverslips, allowed to settle and grow, and then subjected to either TTFields or no TTFields. […] This increase in BLI occurred as early as 30 minutes after commencement of TTFields and continued to 24 h of TTFields exposure. […] Without being bound by this theory, it is believed that the elevation in bioluminescence was not due to a direct effect of TTFields on firefly luciferase activity because exposure of purified firefly luciferase to 200 kHz TTFields led to over a 1000-fold loss in enzymatic activity 60 minutes after initiation of TTFields.
FIG. 16B depicts the effect of TTFields on eGFP fluorescence in U87-MG/eGFP-fLuc cells observed from time course of representative images (not shown) for TTFields-exposed vs. TTFields-unexposed U87-MG/eGFP-fLuc. […] More specifically, FIG. 16C depicts the effect of TTFields on the fLuc bioluminescence (fLuc-BLI) over eGFP fluorescence (eGFP-FL) ratio for U87-MG/eGFP-fLuc cells as a function of length of TTFields exposure; and FIG. 16D depicts the effect of TTFields exposure vs. non-exposure on the fLuc-BLI/eGFP-FL ratio as a function of TTFields exposure time (hours).

[6] = test system: BBB of rat brain; test: DCE-MRI of gadolinium contrast agent accumulation in rat brain; format: in vivo; settings: for contrast agent accumulation in the brain tissue after recovery: 100 kHz fields 72 h followed by 96 h without fields
Experimental: Yet another set of in vivo experiments was performed using Dynamic Contrast Enhanced MRI (DCE-MRI) with intravenous injection of Gadolinium contrast agent (Gd-DTPA, Magnetol, MW 547). In these experiments, test rats were treated with 100 kHz alternating electric fields for 72 h, and control rats were not treated with alternating electric fields for the same period of time. After this 72 h period, the alternating electric field was turned off, the rats were anesthetized, and a series of 60 Tlw MRI scans (each of the scans having a duration of 28 seconds) was acquired. The gadolinium contrast agent was injected into the rat's tail vein during the 7th of these 60 scans.
The image analysis for each rat included (1) determining a baseline for each voxel by calculating the mean of the first six Tlw MRI scans for each voxel (i.e., the scans prior to the injection of the gadolinium); (2) computing voxel by voxel, the percent signal change (i.e., gadolinium accumulation) over time relative to the baseline; (3) segmenting the brain into anterior, middle, and posterior segments; (4) generating for each of the three segments the mean percent signal change with respect to the baseline over all the voxels in the respective segment and then (5) averaging 4 consecutive time points (i.e. 4 scans) together. Finally, the data from all of the rats within any given group were averaged together.
To test whether this increase in permeability of the BBB was temporary, the same test conditions were repeated, but followed with an additional 96 hours without alternating electric fields. After this 96 hour period, a series of 60 Tlw MM scans (each of the scans having a duration of 28 seconds) was acquired using the same procedure described above (including the gadolinium injection). The results of this portion of the DCE-MM experiment for each of the three segments of the brain are also depicted in FIG. 8. […] From this we can conclude that the permeability of the BBB returns to normal after the alternating electric fields are discontinued.
The relationship between the intensity of the alternating electric fields and the impact of those fields on BBB integrity and permeability was also apparent from in vivo experiments in rats using serial dynamic contrast-enhanced (DCE) MM to measure gadolinium (Gd) uptake after 100 kHz alternating electric fields were applied for 72 hours. The rat's brains were segmented into three regions (anterior, posterior, and middle), and simulations of the alternating electric fields delivery to those three regions yielded field strengths of 1.5±0.6 V/cm RMS, 2.1±1.2 V/cm RMS, and 2.7±1.7 V/cm RMS respectively. […] These findings also indicate that the cells' response to alternating electric fields depends on the intensity of the fields.

[7] = test system: BBB of rat brain; test: Evans Blue accumulation in rat brain after alternating electric fields; format: in vivo; settings: 100 kHz fields 72 h vs sham heat/control
Description: A set of in vivo experiments on rats was also run to quantify the increase in vessel permeability caused by exposure to the alternating electric fields. These experiments used Evans Blue (EB) dye, which is an azo dye that has a very high affinity for serum albumin (molecule size ˜69 kDa). Because of its large molecule size, serum albumin will ordinarily not be able to get past the BBB.
This was accomplished by shaving each rat's head, positioning a first pair of capacitively coupled electrodes on the top and bottom of the rat's head, and positioning a second pair of capacitively coupled electrodes on the left and right sides of the rat's head. A 100 kHz AC voltage was then applied between the top and bottom electrodes for 1 second, followed by a 100 kHz AC voltage applied between the right and left electrodes for 1 second, in a repeating sequence.
Under the conditions indicated in Table 1 and for the times indicated on Table 1, EB was injected intravenously into the tail vein under anesthesia (Once injected, EB immediately binds to Albumin), and the EB was allowed to circulate for 2 hours in all cases. The following steps were then performed: (a) intracardiac perfusion with saline; (b) brains are sliced in four pieces with a brain slicer; (c) pieces were photographed to localize staining and weighted; (d) EB extraction after tissue homogenization with TCA 50% (1:3) and centrifuge and (e) EB quantification at 610 nm. Results are given as μg EB per g tissue.
During the experiment, two animals from group 2 and one animal from group 4 were excluded (disrupted treatment, failure to inject EB into the tail vein). There were no differences between the animals treated with alternating electric fields (groups 1 and 2) and therefore these animals were grouped together. Similarly, there were no differences between sham heat and control animals (groups 3 and 4) and therefore these animals were grouped together.
EB accumulation in these four specific sections was then measured. In addition, a computer simulation was performed to determine the field strength in each of these four sections. […]

T1 sequence (P08659 whole entry): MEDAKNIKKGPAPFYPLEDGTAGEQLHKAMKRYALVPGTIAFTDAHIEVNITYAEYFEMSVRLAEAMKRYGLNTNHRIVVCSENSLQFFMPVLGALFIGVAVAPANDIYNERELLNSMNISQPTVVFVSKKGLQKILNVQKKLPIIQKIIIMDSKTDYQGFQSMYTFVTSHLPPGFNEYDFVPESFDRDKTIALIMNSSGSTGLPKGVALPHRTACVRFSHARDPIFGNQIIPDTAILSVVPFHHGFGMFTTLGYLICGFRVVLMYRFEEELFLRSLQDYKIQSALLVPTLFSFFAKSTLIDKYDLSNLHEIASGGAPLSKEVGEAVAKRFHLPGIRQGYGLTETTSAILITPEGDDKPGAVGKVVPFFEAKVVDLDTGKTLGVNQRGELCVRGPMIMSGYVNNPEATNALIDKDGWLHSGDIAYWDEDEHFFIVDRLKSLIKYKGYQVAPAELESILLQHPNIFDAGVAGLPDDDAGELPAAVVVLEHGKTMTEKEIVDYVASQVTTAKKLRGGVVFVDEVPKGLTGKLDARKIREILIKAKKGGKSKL

CC(=O)O[C@H]1C(=O)[C@@]2(C)[C@H]([C@H](OC(=O)c3ccccc3)[C@]3(O)C[C@H](OC(=O)[C@H](O)[C@@H](NC(=O)c4ccccc4)c4ccccc4)C(C)=C1C3(C)C)[C@]1(OC(C)=O)CO[C@@H]1C[C@@H]2O [PTX, paclitaxel]
fold increase of the tumor volume ([1]; 15 mg/kg PTX + 100 kHz fields vs heat only, heat+PTX, fields only, day 15): significant decrease in the fold tumor volume increase | Ki67/DAPI ratio (cell proliferation in the GBM tumor) ([1]; 25 mg/kg PTX i.p. after 72 h 100 kHz fields vs fields only, day 13): significant decrease in cell proliferation

CCc1c2c(nc3ccc(OC(=O)N4CCC(N5CCCCC5)CC4)cc13)-c1cc3c(c(=O)n1C2)COC(=O)[C@]3(O)CC [Irinotecan]
synergy of TTFields plus drug [2]: synergy was found | sensitivity of cells to drug ([2]; TTFields for 3 days vs no TTFields): improves the sensitivity

Oc1ccc(Cc2nc3c(Cc4ccccc4)nc(-c4ccc(O)cc4)cn3c2O)cc1 [coelenterazine]
permeation of luciferase substrate through the plasma membrane [3]: increased permeation

O=C(O)[C@H]1CSC(c2nc3ccc(O)cc3s2)=N1 [D-luciferin]
permeation of luciferase substrate through the plasma membrane [3]: increased permeation | reversibility of increased uptake [4]: reversibly increase uptake

firefly luciferase: purified firefly luciferase enzyme
loss in enzymatic activity ([5]; 200 kHz TTFields, 60 minutes after initiation): > 1000 fold | activity of purified firefly luciferase ([5]; TTFields vs no TTFields, p<0.01): significantly decreased activity

O=C([O-])CN(CCN(CC(=O)[O-])CC(=O)O)CCN(CC(=O)[O-])CC(=O)O.[Gd+3] [Gd-DTPA]
Gd accumulation in the anterior part of the brain ([6]; 100 kHz fields 72 h): no significant Gd accumulation | signal enhancement in the middle and posterior brains ([6]; 100 kHz fields 72 h, about 10 minutes after Gd injection, vs control rats): significantly increased signal enhancement | contrast agent accumulation in the brain tissue after recovery ([6]; listed as Gd): no significant accumulation | contrast agent accumulation in the brain tissue after recovery ([6]; listed as contrast agent): not significantly different | contrast agent accumulation in the brain tissue ([6]; 100 kHz fields 72 h vs control rats): significantly higher | spatial distribution of Gd enhancement ([6]; test rats, 20 to 23 minutes post-contrast administration): distributed in the whole brain

Cc1cc(-c2ccc(/N=N/c3ccc4c(S(=O)(=O)O)cc(S(=O)(=O)O)c(N)c4c3O)c(C)c2)ccc1/N=N/c1ccc2c(S(=O)(=O)O)cc(S(=O)(=O)O)c(N)c2c1O [EB, Evans Blue]
EB accumulation in posterior sections (3, 4) ([7]; EB i.v., 2 h circulation): smaller increase (that was not statistically significant) | EB accumulation in sections 1, 2 (frontal cerebrum) ([7]; EB i.v., 2 h circulation): statistically significant increase | average EB accumulation in the rat brain, averaged over all four sections ([7]; p<0.05): higher accumulation
